Legend:
[1] = 101 kPa, Liquid
[2] = xn = mol fraction of the nth substance listed; conditions: 101 kPa, Liquid

CCC(C)O (stereo unspecified) [butan-2-ol]
[1]
Conditions | mass density [kg/m3] | viscosity [mPa·s]
298.15 K | 802.4 | 2.999
303.15 K | 798.7 | 2.499
308.15 K | 793.8 | 2.475

CCC(C)O (stereo unspecified) [butan-2-ol] + OCCO
[2]
Conditions | mass density, 298.15 K [kg/m3] | mass density, 303.15 K [kg/m3] | mass density, 308.15 K [kg/m3] | viscosity, 298.15 K [mPa·s] | viscosity, 303.15 K [mPa·s] | viscosity, 308.15 K [mPa·s]
x1 = 0.0514 | 1085.8 | 1081.8 | 1078.5 | 14.67 | 12.2 | 10.24
x1 = 0.1049 | 1062.7 | 1059.1 | 1055.6 | 13.78 | 11.58 | 9.795
x1 = 0.1847 | 1029.6 | 1025.9 | 1022.8 | 12.29 | 10.43 | 8.898
x1 = 0.261 | 1000.3 | 996.7 | 993.4 | 10.82 | 9.184 | 7.897
x1 = 0.3516 | 968.3 | 964.6 | 960.9 | 9.089 | 7.76 | 6.681
x1 = 0.4562 | 934.5 | 930.7 | 926.9 | 7.352 | 6.211 | 5.442
x1 = 0.5039 | 920.3 | 916.4 | 912.5 | 6.669 | 5.641 | 4.96
x1 = 0.6639 | 876.9 | 873.1 | 868.9 | 4.971 | 4.182 | 3.803
x1 = 0.7723 | 850.9 | 847.3 | 842.9 | 4.301 | 3.618 | 3.347
x1 = 0.8751 | 828.2 | 824.7 | 820.1 | 3.791 | 3.18 | 3.034
x1 = 1 | 802.4 | 798.7 | 793.8 | 2.999 | 2.499 | 2.475

CCCCCCCO [heptan-1-ol]
[1]
Conditions | mass density [kg/m3] | viscosity [mPa·s]
298.15 K | 818.9 | 5.914
303.15 K | 815.4 | 5.045
308.15 K | 811.9 | 4.34

CCCCCCCO [heptan-1-ol] + CC(O)CO
[2], x1 = 1
Conditions | mass density [kg/m3] | viscosity [mPa·s]
298.15 K | 818.9 | 5.914
303.15 K | 815.4 | 5.045
308.15 K | 811.9 | 4.34

CCCCCCO [hexan-1-ol]
[1]
Conditions | mass density [kg/m3] | viscosity [mPa·s]
298.15 K | 815.4 | 4.643
303.15 K | 811.5 | 3.999
308.15 K | 808.3 | 3.471

CCCCCCO [hexan-1-ol] + CC(O)CO
[2], x1 = 1
Conditions | mass density [kg/m3] | viscosity [mPa·s]
298.15 K | 815.4 | 4.643
303.15 K | 811.5 | 3.999
308.15 K | 808.3 | 3.471

From the NIST ThermoML archive (doi:10.1021/je900954y)
